Here are results for 39 molecules from ChEMBL document CHEMBL4483862, “Open-source discovery of chemical leads for next-generation chemoprotective antimalarials” (2018).

The test has as its system Plasmodium berghei. Briefly: Luciferase/luciferin-expressing antifolate-resistant parasites were used to infect a culture of HepG2 cells that were pre-incubated with compounds. Infected hepatocytes emit light due to the luciferase reaction. Assay results are presented as the percent inhibition of light emission compared to control. […]. Format: functional. The settings on record: sporozoite; for IC90: read-out: LUCIFERASE INFECTION ASSAY - IC90.

Where [1] appears, read: read-out: LUCIFERASE INFECTION ASSAY - IC50.

For orientation: IC50 means the point on the concentration scale where inhibition reaches its midpoint. As usually defined, the IC90 is the concentration needed for an effect of 90%. Regarding `Cc1noc(N)c1C(=O)OCc1cccc2cccnc12`, the IC90 was greater than 10 µM. Moreover, the IC50 (HEPG2TOX_HILL_SLOPE 10.3, HEPG2TOX_R_SQUARED 0.154, PBLUC_HILL_SLOPE 14, PBLUC_R_SQUARED 0.377, read-out: LUCIFERASE INFECTION ASSAY - IC50) worked out at 9.17 µM.

Take `C=CCn1c(C)cc(C(=O)CSc2nc3ccccc3[nH]2)c1C`: the IC90 amounted to 0.467 µM. Also, the IC50 (PBLUC_HILL_SLOPE 12.6, PBLUC_R_SQUARED 0.563, read-out: LUCIFERASE INFECTION ASSAY - IC50) was found to be 0.393 µM.

For the molecule `N#CCCN(C(=O)CSc1nc2cc(S(=O)(=O)Nc3ccc(Cl)cc3)ccc2o1)c1ccccc1`, the IC90 worked out at 7.89 µM. The IC50 (PBLUC_HILL_SLOPE 1.44, PBLUC_R_SQUARED 0.751, read-out: LUCIFERASE INFECTION ASSAY - IC50) amounted to 1.72 µM.

As to `N#Cc1ccc(S(=O)(=O)Nc2cc(C(F)(F)F)cc(C(F)(F)F)c2)c(Cl)c1`, the IC90 amounted to 5.49 µM. Also, the IC50 (FFLUC_HILL_SLOPE 10.5, FFLUC_R_SQUARED 0.0508, HEPG2TOX_HILL_SLOPE 1.91, HEPG2TOX_R_SQUARED 0.922, PBLUC_HILL_SLOPE 2.28, PBLUC_R_SQUARED 0.661, read-out: LUCIFERASE INFECTION ASSAY - IC50) worked out at 2.09 µM.

Turning to `CC(C)Sc1ncccc1C(=O)N1CCN(c2oc(C3CC3)nc2C#N)CC1`, the 90% effect concentration (IC90) is greater than 10 µM. Further, under setting [1], the IC50 was greater than 10 µM.

Regarding `O=C1N(Cc2ccccc2)c2ccccc2C12Oc1ccc(Br)cc1-c1cc(-c3ccccc3)nn12` (stereo not drawn), the IC90 is greater than 10 µM. In addition, under setting [1], the IC50 was found to be 9.29 µM.

Consider `c1cncc(-c2cnc3sc(NCc4ccncc4)nn23)c1`, for which the concentration for an effect of 90% (IC90) is greater than 10.7 µM. For the same molecule, the IC50 (PBLUC_HILL_SLOPE 12.5, PBLUC_R_SQUARED 0.401, read-out: LUCIFERASE INFECTION ASSAY - IC50) worked out at 10.1 µM.

Consider `c1ccc(-c2nnc3ccc(-c4cccs4)cn23)cc1`, for which the IC90 was greater than 10 µM. The IC50 (HEPG2TOX_HILL_SLOPE 16.6, HEPG2TOX_R_SQUARED 0.17, read-out: LUCIFERASE INFECTION ASSAY - IC50) was greater than 10 µM.

In the case of `CCOC(=O)c1sc(N(Cc2ccccc2)C(=O)CCc2cc(OC)c(OC)c(OC)c2)nc1C`, the concentration for an effect of 90% (IC90) came out at 4.11 µM. The IC50 (PBLUC_HILL_SLOPE 16, PBLUC_R_SQUARED 0.382, read-out: LUCIFERASE INFECTION ASSAY - IC50) came out at 3.58 µM.

For `COc1ccc(-c2nc(-c3ccccc3)c(-c3ccccc3)[nH]2)cc1OCC(N)=O`, the IC90 is greater than 10 µM. The IC50 (PBLUC_HILL_SLOPE 1.74, PBLUC_R_SQUARED 0.661, read-out: LUCIFERASE INFECTION ASSAY - IC50) is 6.3 µM.

Turning to `Oc1c(Br)cc(Cl)cc1/C=C/c1ccc2cccc(O)c2n1`, the IC90 is greater than 8.76 µM. Besides, the IC50 (PBLUC_HILL_SLOPE 4.36, PBLUC_R_SQUARED 0.823, read-out: LUCIFERASE INFECTION ASSAY - IC50) was 5.59 µM.

For `O=C(c1cnc(Nc2cccc(Oc3ccccc3)c2)[nH]1)c1ccccc1O`, the IC90 is 1.08 µM. In addition, the IC50 (HEPG2TOX_HILL_SLOPE 1.38, HEPG2TOX_R_SQUARED 0.947, PBLUC_HILL_SLOPE 15.8, PBLUC_R_SQUARED 0.824, read-out: LUCIFERASE INFECTION ASSAY - IC50) worked out at 0.938 µM.

On to `O=C(Nc1nc2ccccc2s1)N1CC=C(c2c[nH]c3ncccc23)CC1`, for which the IC90 was greater than 10 µM. The half-inhibitory concentration (IC50) (HEPG2TOX_HILL_SLOPE 3.51, HEPG2TOX_R_SQUARED 0.954, PBLUC_HILL_SLOPE 3.11, PBLUC_R_SQUARED 0.433, read-out: LUCIFERASE INFECTION ASSAY - IC50) is 6.66 µM.

On to `Cc1ccc2nc(CN3CCN(C(c4ccc(F)cc4)c4ccc(F)cc4)CC3)cc(=O)n2c1`, for which the IC90 stood at 4.14 µM. The IC50 (PBLUC_HILL_SLOPE 12.7, PBLUC_R_SQUARED 0.219, read-out: LUCIFERASE INFECTION ASSAY - IC50) amounted to 3.48 µM.

As to `O=C(Nc1nccs1)c1ccc(N2CCCCCC2)nc1`, the IC90 is greater than 10 µM. Also, the IC50 (PBLUC_HILL_SLOPE 1.4, PBLUC_R_SQUARED 0.612, read-out: LUCIFERASE INFECTION ASSAY - IC50) stood at 2.36 µM.

With `CCCN1CCc2nc(Nc3ccc(Oc4ccccc4)cc3)ncc2C1`, the IC90 was greater than 9.16 µM. Besides, under setting [1], the IC50 is greater than 9.16 µM.

On to `CCN(c1ccccc1)S(=O)(=O)c1ccc(C(=O)NC2CCCCC2)cc1`, for which the IC90 was greater than 10 µM. Besides, for the setting “HEPG2TOX_HILL_SLOPE 0.154, HEPG2TOX_R_SQUARED 0.656, read-out: LUCIFERASE INFECTION ASSAY - IC50”, the IC50 was greater than 10 µM.

For the molecule `COc1cc(C(=O)Nc2ccc(-c3csc(N4CCOCC4)n3)cc2)cc(Cl)c1OC`, the IC90 is greater than 10 µM. The IC50 (HEPG2TOX_HILL_SLOPE 2.64, HEPG2TOX_R_SQUARED 0.944, PBLUC_HILL_SLOPE 1.81, PBLUC_R_SQUARED 0.542, read-out: LUCIFERASE INFECTION ASSAY - IC50) came out at 3.98 µM.

As to `COc1ccc(C(=O)Nc2ccc(N3CCOCC3)cc2)cn1`, the IC90 was greater than 10 µM. Besides, the IC50 under setting [1] was greater than 10 µM.

With `O=C(Cc1csc(-c2ccccn2)n1)Nc1sc2c(c1C(=O)NCc1ccccc1)CCCC2`, the IC90 is greater than 10 µM. The IC50 under setting [1] is greater than 10 µM.

Take `COc1ccc2[nH]c(C(=O)Nc3ccc(F)cc3)c(C)c2c1`: the IC90 stood at 4.28 µM. For the same molecule, under “HEPG2TOX_HILL_SLOPE 0.946, HEPG2TOX_R_SQUARED 0.313, PBLUC_HILL_SLOPE 15.5, PBLUC_R_SQUARED 0.583, read-out: LUCIFERASE INFECTION ASSAY - IC50”, the concentration for half-maximal inhibition (IC50) came to 3.72 µM.

As to `COc1ccccc1-c1ccc2ncc(-c3cccc(NC(C)=O)c3)n2n1`, the 90% effect concentration (IC90) is greater than 10 µM. Moreover, the IC50 (HEPG2TOX_HILL_SLOPE 1.56, HEPG2TOX_R_SQUARED 0.888, PBLUC_HILL_SLOPE 1.15, PBLUC_R_SQUARED 0.442, read-out: LUCIFERASE INFECTION ASSAY - IC50) is 4.22 µM.

Regarding `CC(=O)Nc1cccc(-c2cnc3ccc(-c4cccs4)nn23)c1`, the IC90 came out at 3.37 µM. Moreover, the IC50 (HEPG2TOX_HILL_SLOPE 0.814, HEPG2TOX_R_SQUARED 0.982, PBLUC_HILL_SLOPE 1.1, PBLUC_R_SQUARED 0.75, read-out: LUCIFERASE INFECTION ASSAY - IC50) is 0.461 µM.

Regarding `CCCCCCCCCONC(=O)Nc1ccc([N+](=O)[O-])cc1`, the IC90 was greater than 10 µM. Where the note is “FFLUC_HILL_SLOPE 17.3, FFLUC_R_SQUARED 0.0693, PBLUC_HILL_SLOPE 3, PBLUC_R_SQUARED 0.451, read-out: LUCIFERASE INFECTION ASSAY - IC50”, the concentration for half-maximal inhibition (IC50) was found to be 6.31 µM.

With `FC(F)(F)Oc1cccc(-c2cnc3sc(NCCN4CCOCC4)nn23)c1`, the IC90 was greater than 7.98 µM. In addition, for the setting “PBLUC_HILL_SLOPE 2.27, PBLUC_R_SQUARED 0.551, read-out: LUCIFERASE INFECTION ASSAY - IC50”, the IC50 is 5.39 µM.

Take `COc1ccc(C(=O)N2CCN(c3ncnc4cc(Cl)ccc34)CC2)cc1`: the IC90 is greater than 10 µM. Further, the IC50 (HEPG2TOX_HILL_SLOPE 0.344, HEPG2TOX_R_SQUARED 0.575, PBLUC_HILL_SLOPE 18.9, PBLUC_R_SQUARED 0.0549, read-out: LUCIFERASE INFECTION ASSAY - IC50) was 9.92 µM.

With `Cc1nn(Cc2ccccc2Cl)c(C)c1C(=O)OCC(=O)N1CCN(c2ccccc2)CC1`, the IC90 is greater than 10 µM. Also, the IC50 under setting [1] was greater than 10 µM.

On to `Cc1cccc2sc(N(Cc3ccccc3)C(=O)CSC(c3ccccc3)c3ccccc3)nc12`, for which the IC90 was greater than 10 µM. Moreover, the 50% inhibitory concentration (IC50) under setting [1] is greater than 10 µM.

With `CCN(CC)S(=O)(=O)c1cccc(-c2nnc(SCC(=O)N3CCc4ccccc43)n2-c2ccccc2)c1`, the IC90 is greater than 10 µM. Under setting [1], the IC50 is greater than 10 µM.

With `CCn1c(SCCC(=O)Nc2cc(C)on2)nnc1-c1ccc(C(C)(C)C)cc1`, the IC90 is greater than 10 µM. The IC50 under setting [1] was greater than 10 µM.

Consider `Cc1cccc(NC(=O)CN(C)C(=O)/C=C/c2ccccc2)c1C`, for which the IC90 was greater than 10 µM. For the same molecule, the IC50 under setting [1] is greater than 10 µM.

With `CC(C)(c1ccccc1)c1ccc(OCC(O)CN2CCC(C(N)=O)CC2)cc1` (stereo not drawn), the IC90 is greater than 10 µM. Also, under setting [1], the IC50 is greater than 10 µM.

Turning to `O=C1/C(=C/c2ccc(SC(F)(F)F)cc2)SC(=S)N1CCN1CCOCC1`, the IC90 was greater than 10 µM. Further, under setting [1], the IC50 was greater than 10 µM.

Turning to `CC1=C(C(=O)OCc2ccccc2)C(c2ccc(Cl)c([N+](=O)[O-])c2)n2nnnc2N1` (stereo not drawn), the 90% effect concentration (IC90) was greater than 10 µM. In addition, the IC50 (HEPG2TOX_HILL_SLOPE 0.964, HEPG2TOX_R_SQUARED 0.562, read-out: LUCIFERASE INFECTION ASSAY - IC50) was greater than 10 µM.

On to `FC(F)(F)c1nc2ccccc2nc1N/N=C/c1ccc(Cl)cc1`, for which the IC90 was determined as 9.28 µM. Under “HEPG2TOX_HILL_SLOPE 7.63, HEPG2TOX_R_SQUARED 0.926, PBLUC_HILL_SLOPE 14.9, PBLUC_R_SQUARED 0.207, read-out: LUCIFERASE INFECTION ASSAY - IC50”, the IC50 is 8 µM.

Turning to `O=C1N=C(N2CCCCC2)S/C1=C(/C=C(CC(=O)c1ccccc1)c1ccccc1)c1ccccc1`, the IC90 was greater than 6.7 µM. Further, under setting [1], the IC50 was greater than 6.7 µM.

As to `O=C(Nc1nc2cc(C(F)(F)F)ccc2n1Cc1ccco1)C1CCC1`, the IC90 amounted to 4.08 µM. Besides, the IC50 (PBLUC_HILL_SLOPE 12.7, PBLUC_R_SQUARED 0.404, read-out: LUCIFERASE INFECTION ASSAY - IC50) came to 3.43 µM.

Consider `O=C1/C(=C2/NC=C(c3ccc(Cl)cc3)O2)Sc2ccccc21`, for which the IC90 is greater than 10 µM. In addition, for the setting “HEPG2TOX_HILL_SLOPE 0.513, HEPG2TOX_R_SQUARED 0.665, PBLUC_HILL_SLOPE 15.6, PBLUC_R_SQUARED 0.39, read-out: LUCIFERASE INFECTION ASSAY - IC50”, the IC50 is 9.58 µM.

In the case of `CC(C)c1cccc(-c2ccc3nnc(-c4ccc(OCCCN(C)C)cc4)n3c2)c1`, the IC90 was greater than 10 µM. The 50% inhibitory concentration (IC50) under setting [1] was greater than 10 µM.
